Data: publication PMC12073402, “A Selective MAP3K1 Inhibitor Facilitates Discovery of NPM1 as a Member of the Network” (Molecules, 2025)

What was measured:
Test in all cases: KiNativ kinome profiling in PANC-1 lysate
Format in all cases: binding
[1] = target: T1, CK1g2 (Homo sapiens, UniProt P78368); details: Lys2
T1 construct: endogenous in cells; host or cells: PANC-1 cell lysate
Procedure, shortened: (§1)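 PANC-1 lysates were incubated with 5 μM inhibitor or DMSO, then labeled with a desthiobiotin-ATP acyl-phosphate probe that biotinylates conserved kinase lysines. Tryptic peptides were streptavidin-enriched and quantified by LC-MS/MS, reported as % change in MS signal from duplicate treated and duplicate control samples.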

[2] = tested on: PI4KA, PI4KAP2; details: 5 µM; ATP; SGTPMQSAAKAPYLAK
Procedure, shortened: as §1

[3] = target: T2, TNK1 (Homo sapiens, UniProt Q13470); details: Lys1
T2 construct: endogenous in cells; host or cells: PANC-1 cell lysate
Procedure, shortened: as §1

[4] = target: T3, IRE1 (Homo sapiens, UniProt O75460)
T3 construct: we opted to conduct a kinome screen (KiNativ) in PANC-1 cell lysates; endogenous in cells; host or cells: PANC-1 cell lysate
T3 sequence (O75460 19-977): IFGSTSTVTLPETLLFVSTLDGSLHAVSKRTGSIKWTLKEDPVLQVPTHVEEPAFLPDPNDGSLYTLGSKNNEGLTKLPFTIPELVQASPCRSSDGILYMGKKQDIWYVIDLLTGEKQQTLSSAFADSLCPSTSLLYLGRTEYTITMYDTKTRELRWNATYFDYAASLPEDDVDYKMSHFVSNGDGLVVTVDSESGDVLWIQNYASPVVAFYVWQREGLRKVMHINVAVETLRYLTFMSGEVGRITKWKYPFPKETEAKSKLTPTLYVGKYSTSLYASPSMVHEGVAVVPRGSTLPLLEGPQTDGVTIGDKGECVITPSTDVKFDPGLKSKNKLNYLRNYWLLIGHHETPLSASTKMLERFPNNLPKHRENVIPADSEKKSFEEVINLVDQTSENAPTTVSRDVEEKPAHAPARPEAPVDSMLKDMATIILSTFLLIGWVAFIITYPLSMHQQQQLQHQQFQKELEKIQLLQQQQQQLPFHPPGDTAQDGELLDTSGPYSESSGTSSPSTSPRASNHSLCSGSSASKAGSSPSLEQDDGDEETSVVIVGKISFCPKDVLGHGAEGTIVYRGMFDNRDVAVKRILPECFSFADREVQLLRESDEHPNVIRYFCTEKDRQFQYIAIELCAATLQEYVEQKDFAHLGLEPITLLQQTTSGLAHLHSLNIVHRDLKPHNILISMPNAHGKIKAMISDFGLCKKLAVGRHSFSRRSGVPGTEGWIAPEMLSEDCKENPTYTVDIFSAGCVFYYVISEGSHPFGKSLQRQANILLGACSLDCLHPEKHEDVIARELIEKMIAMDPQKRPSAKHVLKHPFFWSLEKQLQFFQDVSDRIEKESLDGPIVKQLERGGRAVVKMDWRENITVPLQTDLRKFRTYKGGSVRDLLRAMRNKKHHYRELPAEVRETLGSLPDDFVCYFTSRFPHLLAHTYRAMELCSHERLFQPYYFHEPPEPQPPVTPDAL
Procedure, shortened: as §1

[5] = target: T4, HER2/ErbB2 (Homo sapiens, UniProt P04626)
T4 construct: we opted to conduct a kinome screen (KiNativ) in PANC-1 cell lysates; endogenous in cells; host or cells: PANC-1 cell lysate
T4 sequence (P04626 23-1255): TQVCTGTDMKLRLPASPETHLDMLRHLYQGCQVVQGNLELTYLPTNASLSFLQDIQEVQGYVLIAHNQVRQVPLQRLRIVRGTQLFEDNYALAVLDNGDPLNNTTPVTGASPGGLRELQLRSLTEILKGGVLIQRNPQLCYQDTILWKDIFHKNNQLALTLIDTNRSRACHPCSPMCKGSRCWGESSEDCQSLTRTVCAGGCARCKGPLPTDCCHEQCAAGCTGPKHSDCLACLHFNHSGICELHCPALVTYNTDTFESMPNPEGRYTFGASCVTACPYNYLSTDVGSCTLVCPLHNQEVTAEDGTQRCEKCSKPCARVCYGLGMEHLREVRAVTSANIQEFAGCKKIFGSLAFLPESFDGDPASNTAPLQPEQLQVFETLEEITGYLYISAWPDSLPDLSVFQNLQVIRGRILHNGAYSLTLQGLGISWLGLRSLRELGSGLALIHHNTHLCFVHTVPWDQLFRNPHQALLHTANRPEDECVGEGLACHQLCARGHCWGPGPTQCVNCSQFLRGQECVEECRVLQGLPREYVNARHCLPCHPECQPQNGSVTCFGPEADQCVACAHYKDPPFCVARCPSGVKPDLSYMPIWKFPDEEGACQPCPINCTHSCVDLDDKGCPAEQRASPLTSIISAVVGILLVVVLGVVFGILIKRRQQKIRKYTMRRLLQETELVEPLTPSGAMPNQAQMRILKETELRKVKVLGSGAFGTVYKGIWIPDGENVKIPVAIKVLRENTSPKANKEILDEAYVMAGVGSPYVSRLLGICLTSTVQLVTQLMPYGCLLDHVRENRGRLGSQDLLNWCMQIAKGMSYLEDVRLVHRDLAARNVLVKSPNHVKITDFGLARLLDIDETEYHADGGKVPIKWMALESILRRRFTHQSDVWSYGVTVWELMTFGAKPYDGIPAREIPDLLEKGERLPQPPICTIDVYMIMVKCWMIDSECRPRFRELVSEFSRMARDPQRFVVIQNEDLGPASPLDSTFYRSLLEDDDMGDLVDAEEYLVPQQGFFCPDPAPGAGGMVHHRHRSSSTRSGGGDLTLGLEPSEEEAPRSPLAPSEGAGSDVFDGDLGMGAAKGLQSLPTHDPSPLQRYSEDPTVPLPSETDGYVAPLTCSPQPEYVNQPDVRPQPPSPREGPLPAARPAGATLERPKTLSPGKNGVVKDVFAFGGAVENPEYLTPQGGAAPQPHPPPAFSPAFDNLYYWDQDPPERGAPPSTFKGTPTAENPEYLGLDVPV
Procedure, shortened: as §1

[6] = target: T5, MAP3K5 (Homo sapiens, UniProt Q99683); details: Lys2
T5 construct: endogenous in cells; host or cells: PANC-1 cell lysate
Procedure, shortened: as §1

[7] = target: T6, CDK6 (Homo sapiens, UniProt Q00534); details: Lys2
T6 construct: endogenous in cells; host or cells: PANC-1 cell lysate
Procedure, shortened: as §1

[8] = target: T7, BRAF, BRAF V600E (Homo sapiens, UniProt P15056); details: Lys2
T7 construct: endogenous in cells; host or cells: PANC-1 cell lysate
Procedure, shortened: as §1

[9] = target: T8, NEK8 (Homo sapiens, UniProt Q86SG6); details: Lys2
T8 construct: endogenous in cells; host or cells: PANC-1 cell lysate
T8 sequence (Q86SG6 whole entry): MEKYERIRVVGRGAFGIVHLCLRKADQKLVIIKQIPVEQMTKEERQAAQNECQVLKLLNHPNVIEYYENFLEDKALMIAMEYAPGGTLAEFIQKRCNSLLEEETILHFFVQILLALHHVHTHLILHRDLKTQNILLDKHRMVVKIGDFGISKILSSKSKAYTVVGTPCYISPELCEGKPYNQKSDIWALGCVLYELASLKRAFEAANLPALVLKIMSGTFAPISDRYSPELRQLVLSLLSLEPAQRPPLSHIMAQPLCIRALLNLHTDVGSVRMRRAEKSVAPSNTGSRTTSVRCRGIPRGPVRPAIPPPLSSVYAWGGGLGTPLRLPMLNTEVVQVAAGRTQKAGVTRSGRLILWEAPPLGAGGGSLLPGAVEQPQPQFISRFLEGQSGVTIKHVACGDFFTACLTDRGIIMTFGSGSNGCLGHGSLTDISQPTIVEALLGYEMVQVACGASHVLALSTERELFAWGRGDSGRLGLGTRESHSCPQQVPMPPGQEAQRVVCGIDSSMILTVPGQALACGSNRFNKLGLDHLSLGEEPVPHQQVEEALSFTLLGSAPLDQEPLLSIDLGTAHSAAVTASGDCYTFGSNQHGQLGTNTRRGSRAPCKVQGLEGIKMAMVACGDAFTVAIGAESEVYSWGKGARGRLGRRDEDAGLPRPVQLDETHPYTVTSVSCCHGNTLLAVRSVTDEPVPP
Procedure, shortened: as §1

[10] = target: T9, GCK (Homo sapiens, UniProt Q12851)
T9 construct: we opted to conduct a kinome screen (KiNativ) in PANC-1 cell lysates; endogenous in cells; host or cells: PANC-1 cell lysate
T9 sequence (Q12851 whole entry): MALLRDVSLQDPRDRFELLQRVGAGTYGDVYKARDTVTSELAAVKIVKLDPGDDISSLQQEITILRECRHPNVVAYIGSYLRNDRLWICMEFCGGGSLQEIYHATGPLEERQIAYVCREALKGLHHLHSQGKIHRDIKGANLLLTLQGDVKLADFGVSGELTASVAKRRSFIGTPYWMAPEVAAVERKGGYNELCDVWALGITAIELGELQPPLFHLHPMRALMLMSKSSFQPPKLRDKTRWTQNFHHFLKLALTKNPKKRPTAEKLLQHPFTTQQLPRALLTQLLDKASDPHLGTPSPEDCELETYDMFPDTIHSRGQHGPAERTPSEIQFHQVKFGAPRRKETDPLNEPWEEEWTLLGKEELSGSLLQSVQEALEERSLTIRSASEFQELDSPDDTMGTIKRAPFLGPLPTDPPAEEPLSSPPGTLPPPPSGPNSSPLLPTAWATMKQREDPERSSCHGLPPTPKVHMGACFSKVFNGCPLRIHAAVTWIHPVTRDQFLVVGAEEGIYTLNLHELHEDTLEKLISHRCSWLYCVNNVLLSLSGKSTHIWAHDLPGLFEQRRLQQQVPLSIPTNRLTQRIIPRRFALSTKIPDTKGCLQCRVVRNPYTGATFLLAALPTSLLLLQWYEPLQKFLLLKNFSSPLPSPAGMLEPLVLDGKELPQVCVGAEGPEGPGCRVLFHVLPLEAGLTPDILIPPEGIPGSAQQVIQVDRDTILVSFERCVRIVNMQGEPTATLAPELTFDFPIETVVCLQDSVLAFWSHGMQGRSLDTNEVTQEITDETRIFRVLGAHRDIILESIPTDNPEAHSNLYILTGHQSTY
Procedure, shortened: as §1

[11] = tested on: FYN, SRC, YES; details: 5 µM; ATP Loop; QGAKFPIKWTAPEAALYGR
Procedure, shortened: as §1

[12] = target: T10, EphB2 (Homo sapiens, UniProt P29323); details: ATP Loop
T10 construct: endogenous in cells; host or cells: PANC-1 lysate
Procedure, shortened: as §1

[13] = target: T11, JAK1 domain2 (Homo sapiens, UniProt P23458)
T11 construct: we opted to conduct a kinome screen (KiNativ) in PANC-1 cell lysates; endogenous in cells; host or cells: PANC-1 cell lysate
T11 sequence (P23458 whole entry, the tested form may be a part): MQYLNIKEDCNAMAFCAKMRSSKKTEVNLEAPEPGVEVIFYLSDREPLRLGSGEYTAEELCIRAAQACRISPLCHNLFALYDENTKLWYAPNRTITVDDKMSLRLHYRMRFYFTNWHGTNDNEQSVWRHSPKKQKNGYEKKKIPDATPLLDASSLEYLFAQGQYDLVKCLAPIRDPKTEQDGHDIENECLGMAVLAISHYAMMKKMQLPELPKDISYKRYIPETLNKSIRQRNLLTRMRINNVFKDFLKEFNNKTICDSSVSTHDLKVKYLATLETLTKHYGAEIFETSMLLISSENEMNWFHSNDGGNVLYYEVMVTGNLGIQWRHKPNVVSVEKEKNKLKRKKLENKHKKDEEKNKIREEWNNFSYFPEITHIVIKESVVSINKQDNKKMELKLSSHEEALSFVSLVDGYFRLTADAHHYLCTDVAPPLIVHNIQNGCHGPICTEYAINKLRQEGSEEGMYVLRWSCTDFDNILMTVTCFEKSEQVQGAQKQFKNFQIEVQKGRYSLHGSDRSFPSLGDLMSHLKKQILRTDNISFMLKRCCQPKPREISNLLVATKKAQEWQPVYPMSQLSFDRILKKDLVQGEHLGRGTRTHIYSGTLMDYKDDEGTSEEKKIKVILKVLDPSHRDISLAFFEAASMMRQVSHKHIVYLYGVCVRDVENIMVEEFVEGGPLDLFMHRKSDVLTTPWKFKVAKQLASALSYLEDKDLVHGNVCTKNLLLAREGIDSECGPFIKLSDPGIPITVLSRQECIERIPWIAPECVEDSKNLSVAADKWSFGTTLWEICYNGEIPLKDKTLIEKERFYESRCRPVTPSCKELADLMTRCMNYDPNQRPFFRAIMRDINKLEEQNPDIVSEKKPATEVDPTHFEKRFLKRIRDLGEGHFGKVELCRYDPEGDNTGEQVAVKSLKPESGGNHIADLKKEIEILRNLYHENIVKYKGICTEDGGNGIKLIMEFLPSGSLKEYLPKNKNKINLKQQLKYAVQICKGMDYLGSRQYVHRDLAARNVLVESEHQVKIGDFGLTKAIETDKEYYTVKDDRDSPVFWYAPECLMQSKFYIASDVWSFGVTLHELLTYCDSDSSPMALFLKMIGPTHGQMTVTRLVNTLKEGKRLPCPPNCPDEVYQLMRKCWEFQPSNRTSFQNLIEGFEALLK
Procedure, shortened: as §1

[14] = tested on: MARK3, MARK4; details: 5 µM; Lys1; EVAIKIIDK
Procedure, shortened: as §1

[15] = target: T12, PKD3 (Homo sapiens, UniProt O94806)
T12 construct: endogenous in cells; host or cells: PANC-1 cell lysate
T12 sequence (O94806 1-890): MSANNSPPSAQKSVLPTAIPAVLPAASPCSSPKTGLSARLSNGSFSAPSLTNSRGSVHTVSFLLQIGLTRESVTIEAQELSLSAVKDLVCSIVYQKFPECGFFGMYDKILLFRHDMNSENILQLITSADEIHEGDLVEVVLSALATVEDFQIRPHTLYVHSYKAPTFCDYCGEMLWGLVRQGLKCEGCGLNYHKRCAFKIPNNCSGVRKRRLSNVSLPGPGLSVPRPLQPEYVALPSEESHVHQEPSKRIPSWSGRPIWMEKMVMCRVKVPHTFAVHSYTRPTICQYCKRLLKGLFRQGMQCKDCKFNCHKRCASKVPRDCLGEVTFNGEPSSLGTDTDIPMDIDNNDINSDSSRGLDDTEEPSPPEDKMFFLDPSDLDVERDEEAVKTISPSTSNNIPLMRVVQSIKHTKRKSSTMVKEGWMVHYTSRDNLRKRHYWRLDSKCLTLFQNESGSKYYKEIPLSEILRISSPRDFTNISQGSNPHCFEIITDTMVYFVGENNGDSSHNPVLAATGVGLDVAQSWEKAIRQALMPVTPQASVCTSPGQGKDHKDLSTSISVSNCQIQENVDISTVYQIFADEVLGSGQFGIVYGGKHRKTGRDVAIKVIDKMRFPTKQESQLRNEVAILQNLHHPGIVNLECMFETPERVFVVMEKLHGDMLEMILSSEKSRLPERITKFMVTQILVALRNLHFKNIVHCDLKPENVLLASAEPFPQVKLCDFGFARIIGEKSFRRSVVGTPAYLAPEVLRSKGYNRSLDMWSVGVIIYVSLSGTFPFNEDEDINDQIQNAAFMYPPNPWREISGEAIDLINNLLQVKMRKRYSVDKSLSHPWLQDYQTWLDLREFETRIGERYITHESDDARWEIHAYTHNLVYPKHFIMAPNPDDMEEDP
Procedure, shortened: as §1

## Cn1cc(-c2cnc3ccc(NC(=O)Nc4ccc(F)c(C(F)(F)F)c4)cc3n2)cn1 [51-106, 1-(4-Fluoro-3-(trifluoromethyl)phenyl)-3-(3-(1-methyl-1H-pyrazol-4-yl)quinoxalin-6-yl)urea]
[1]
  inhibition at 5 µM: ≤ 0%
[2]
  % Inhibition: 3.0%
[3]
  inhibition at 5 µM: 1.9%
[4]; Lys1, GMFDNRDVAVKR
  inhibition at 5 µM: 8.9%
[4]; Lys2, DLKPHNILISMPNAHGK
  inhibition at 5 µM: ≤ 0%
[5]; ATP Loop, LLDIDETEYHADGGKVPIK
  inhibition at 5 µM: ≤ 0%
[5]; Lys1, GIWIPDGENVKIPVAIKVLR
  inhibition at 5 µM: 15.6%
[6]
  inhibition at 5 µM: 11.7%
[7]
  inhibition at 5 µM: ≤ 0%
[8]
  inhibition at 5 µM: 0.5%
[9]
  inhibition at 5 µM: ≤ 0%
[10]; Lys1, DTVTSELAAVKIVK
  inhibition at 5 µM: 18.3%
[10]; Lys2, DIKGANLLLTLQGDVK
  inhibition at 5 µM: 3.9%
[11]
  % Inhibition: 14.0%
[12]
  inhibition at 5 µM: ≤ 0%
[13]; 5 µM, ATP Loop, IGDFGLTKAIETDKEYYTVK
  % Inhibition: NB (NB = No Binding (≤ 0))
[13]; Lys1, […]
  inhibition at 5 µM: ≤ 0%
[14]
  % Inhibition: NB (NB = No Binding (≤ 0))
[15]; 5 µM, Lys1, DVAIKVIDK
  % Inhibition: 27.0%
[15]; Lys1, DVAIKVIDK
  inhibition at 5 µM: 27%
[15]; Lys2, NIVHCDLKPENVLLASAEPFPQVK
  inhibition at 5 µM: ≤ 0%
